From publication PMC12356538, “Targeting the SARS-CoV‑2 RNA Translation Initiation Element SL1 by Molecules of Low Molecular Weight” (Journal of the American Chemical Society, 2025)
Read-outs that look alike come from different tables or passages of the source.

Legend:
[1] = tested on: SARS-CoV-2 SL1 RNA (SL1 wt); assay type: binding; conditions: for FBS binding to SL1, in words: ligand-detected NMR; for FBS binding to SL1, in words / Rank / CSP values relative to A.2: SL1 wt; for wLOGSY factor / T2 reduction [%] / CSP [Hz]: 10 μM SL1 wt, 200 μM ligand; for wLOGSY factor / T2 reduction [%]: pH 6.2; for T2 reduction [%]: CPMG 100 vs 5 ms; for Rank: FBS ranking from summed ranks of CSP, wLOGSY and T2 results; for CSP [Hz]: ligand 1H CSP, [RNA]:[ligand] 1:20, pH 6.2; for CSP values relative to A.2: ligand CSP
SL1 Δbulge RNA = assay type: binding, SARS-CoV-2
SL1 wt RNA = assay: NMR-based KD estimation, ligand-detected 1D-1H titration; assay type: binding, SARS-CoV-2; conditions: Suppl. Table 7, read-out: KDest
[2] = ligand constant at 100, SL1 wt RNA concentration 0-250

Compound	FBS binding to SL1, in words [1]	FBS result (CSP, wLOGSY, T2 reduction) in words (SL1 Δbulge RNA)	wLOGSY factor [1]	T2 reduction [%] [1] [%]	Rank [1]	CSP [Hz] [1] [Hz]	also measured
CC(=O)Nc1nc2ccccc2s1 [A.6]	only minor effects	–	–	–	–	–	–
CC(C)(C)C(=O)Nc1nc2ccccc2s1 [A.7]	only minor effects	–	–	–	–	–	–
CC(C)(C)C(=O)Nc1nc2ccc(Br)cc2s1 [A.8]	only minor effects	no effects	–	–	–	–	Kd (SL1 wt RNA; [2]): 254 µM
CNC(=N)Nc1nc2ccc(O)cc2s1 [A.9]	–	no effects	0.66	72.21	39	3.67	Kd (SL1 wt RNA; [2]): 436 µM
CN(C)CC(=O)Nc1nc2ccc(O)cc2s1 [A.12]	among the weakest binders	–	0.15	69.00	40	10.02	–
COc1cc(OC)c2nc(NC(=O)CN(C)C)sc2c1 [A.15]	–	–	2.66	36.00	16	31.92	CSP [Hz] (SL1 Δbulge RNA): 9.18 Hz; Rank (SL1 Δbulge RNA): 2; T2 reduction [%] (SL1 Δbulge RNA): 84.62%; wLOGSY factor (SL1 Δbulge RNA): 0.47; Kd (SL1 wt RNA; ligand constant at 100, SL1 wt RNA concentration 0-200): 108 µM; CSP values relative to A.2 [1]: 2–3 times
CN(C)CC(=O)Nc1nc2ccc(Br)cc2s1 [A.16]	–	no effects	0.74	83.00	17	27.60	CSP values relative to A.2 [1]: 2–3 times
COc1ccc2nc(NC(=O)CN3CCN(C)CC3)sc2c1 [A.18]	positive effect on SL1 binding	no effects	0.80	91.00	12	22.14	–
CSc1ccc2nc(NC(=O)CN(C)C)sc2c1 [A.19]	–	no effects	0.46	87.00	18	25.08	–
COc1ccc2nc(NC(=O)CN(C)C)[nH]c2c1 [A.20]	higher score than that of A.2	no effects	0.62	87.00	15	25.08	–
COc1ccc(-c2nnc(NC(=O)CN(C)C)s2)cc1 [A.21]	–	–	1.43	95.00	13	12.57	–
COc1ccc(-c2nnc(N)s2)cc1 [A.22]	no hit	–	–	–	–	–	–
COc1ccc(-c2nnc(N)s2)cc1OC [A.23]	no hit	–	–	–	–	–	–
CN(C)CC(=O)Nc1nc2ccc(N)cc2s1 [A.24]	among the weakest binders	no effects	0.49	69.42	35	11.40	–
COc1cc(OC)c2nc(NC(=O)CN(C)Cc3ccccc3)sc2c1 [A.25]	–	no effects	–	–	–	–	–
CN(C)CC(=O)Nc1nc2ccc(C(F)(F)F)cc2s1 [A.27]	–	no effects	–	–	–	–	–
CN(C)CC(=O)Nc1nc2ccc(OC(F)(F)F)cc2s1 [A.28]	–	no effects	1.01	85.67	21	13.56	–
COCCN(C)CC(=O)Nc1nc2ccc(OC)cc2s1 [A.30]	–	–	0.14	77.69	35	10.44	–
CN(C)CC(=O)Nc1nc2ccc(S(C)(=O)=O)cc2s1 [A.32]	–	no effects	0.22	46.43	41	6.54	–
COc1ccc2nc(NC(=O)CN(C)Cc3cncnc3)sc2c1 [A.33]	detrimental to binding to SL1	–	–	–	–	–	–
